The source made the active and inactive calls. No cut-off for these calls is given here.
Columns and labels:
[1] = molecular target: T1, 5-hydroxytryptamine receptor 1A (Rattus norvegicus, UniProt P19327); assay: Displacement of [3H]8-OH-DPAT from 5HT1A receptor in rat brain membranes; type: cell membranes
T1 sequence (P19327 whole entry): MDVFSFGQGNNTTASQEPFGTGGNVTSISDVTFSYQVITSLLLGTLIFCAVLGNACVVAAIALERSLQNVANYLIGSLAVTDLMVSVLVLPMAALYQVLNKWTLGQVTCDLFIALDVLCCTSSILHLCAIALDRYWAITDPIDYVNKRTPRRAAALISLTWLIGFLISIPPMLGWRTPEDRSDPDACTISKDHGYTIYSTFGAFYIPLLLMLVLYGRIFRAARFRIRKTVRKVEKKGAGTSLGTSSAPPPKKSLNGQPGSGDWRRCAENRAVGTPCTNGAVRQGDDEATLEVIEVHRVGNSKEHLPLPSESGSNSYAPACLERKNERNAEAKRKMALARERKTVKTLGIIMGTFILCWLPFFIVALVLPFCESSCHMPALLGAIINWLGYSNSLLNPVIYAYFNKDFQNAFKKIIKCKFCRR

[2] = molecular target: Sodium-dependent serotonin transporter (Rattus norvegicus, UniProt P31652); assay: Displacement of [3H]citalopram from 5HTT in rat brain membranes; type: cell membranes
Sodium-dependent serotonin transporter, sequence (P31652 whole entry): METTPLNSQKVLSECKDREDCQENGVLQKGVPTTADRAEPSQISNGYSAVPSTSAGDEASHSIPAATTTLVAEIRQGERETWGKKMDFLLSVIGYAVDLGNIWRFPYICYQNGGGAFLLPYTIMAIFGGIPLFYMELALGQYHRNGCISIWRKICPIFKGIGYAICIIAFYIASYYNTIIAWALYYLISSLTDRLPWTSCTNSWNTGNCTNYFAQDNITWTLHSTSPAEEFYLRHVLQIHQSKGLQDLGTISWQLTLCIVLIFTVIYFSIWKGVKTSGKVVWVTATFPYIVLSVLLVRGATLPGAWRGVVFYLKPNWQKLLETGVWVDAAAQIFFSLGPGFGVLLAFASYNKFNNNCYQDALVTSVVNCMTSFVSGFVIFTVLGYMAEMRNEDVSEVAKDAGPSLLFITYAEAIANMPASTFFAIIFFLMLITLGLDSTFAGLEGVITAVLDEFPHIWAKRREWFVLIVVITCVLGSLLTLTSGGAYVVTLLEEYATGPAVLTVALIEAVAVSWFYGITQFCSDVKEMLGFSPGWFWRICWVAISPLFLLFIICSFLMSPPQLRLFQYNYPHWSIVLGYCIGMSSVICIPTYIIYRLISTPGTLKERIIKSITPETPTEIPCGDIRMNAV

Mus musculus [3] = assay: Induction of hypothermia in Albino Swiss mouse assessed as change in body temperature pretreated for 30 mins at 5 mg/kg, ip measured 30 mins after drug dose; type: functional, organism-based; parameters: dose 5 mg/kg
Mus musculus [4] = assay: Induction of hypothermia in Albino Swiss mouse assessed as change in body temperature pretreated for 30 mins at 5 mg/kg, ip measured 60 mins after drug dose; type: functional, organism-based; parameters: dose 5 mg/kg
Mus musculus [5] = assay: Induction of hypothermia in Albino Swiss mouse assessed as change in body temperature pretreated for 30 mins at 5 mg/kg, ip measured 90 mins after drug dose; type: functional, organism-based; parameters: dose 5 mg/kg
Mus musculus [6] = assay: Induction of hypothermia in Albino Swiss mouse assessed as change in body temperature pretreated for 30 mins at 5 mg/kg, ip measured 120 mins after drug dose; type: functional, organism-based; parameters: dose 5 mg/kg
Mus musculus [7] = assay: Induction of hypothermia in Albino Swiss mouse assessed as change in body temperature pretreated for 30 mins at 10 mg/kg, ip measured 30 mins after drug dose; type: functional, organism-based; parameters: dose 10 mg/kg
Mus musculus [8] = assay: Induction of hypothermia in Albino Swiss mouse assessed as change in body temperature pretreated for 30 mins at 10 mg/kg, ip measured 60 mins after drug dose; type: functional, organism-based; parameters: dose 10 mg/kg
Mus musculus [9] = assay: Induction of hypothermia in Albino Swiss mouse assessed as change in body temperature pretreated for 30 mins at 10 mg/kg, ip measured 90 mins after drug dose; type: functional, organism-based; parameters: dose 10 mg/kg
Mus musculus [10] = assay: Induction of hypothermia in Albino Swiss mouse assessed as change in body temperature pretreated for 30 mins at 10 mg/kg, ip measured 120 mins after drug dose; type: functional, organism-based; parameters: dose 10 mg/kg
Mus musculus [11] = assay: Induction of hypothermia in Albino Swiss mouse assessed as change in body temperature pretreated for 30 mins at 20 mg/kg, ip measured 30 mins after drug dose; type: functional, organism-based; parameters: dose 20 mg/kg
Mus musculus [12] = assay: Induction of hypothermia in Albino Swiss mouse assessed as change in body temperature pretreated for 30 mins at 20 mg/kg, ip measured 60 mins after drug dose; type: functional, organism-based; parameters: dose 20 mg/kg
Mus musculus [13] = assay: Induction of hypothermia in Albino Swiss mouse assessed as change in body temperature pretreated for 30 mins at 20 mg/kg, ip measured 90 mins after drug dose; type: functional, organism-based; parameters: dose 20 mg/kg
Mus musculus [14] = assay: Induction of hypothermia in Albino Swiss mouse assessed as change in body temperature pretreated for 30 mins at 20 mg/kg, ip measured 120 mins after drug dose; type: functional, organism-based; parameters: dose 20 mg/kg
Mus musculus [15] = assay: Induction of hypothermia in 0.1 mg/kg WAY 100635 pretreated Albino Swiss mouse assessed as change in body temperature at 20 mg/kg, ip measured 30 mins after drug dose; type: functional, organism-based
Mus musculus [16] = assay: Induction of hypothermia in 0.1 mg/kg WAY 100635 pretreated Albino Swiss mouse assessed as change in body temperature at 20 mg/kg, ip measured 60 mins after drug dose; type: functional, organism-based
Mus musculus [17] = assay: Reduction of immobility time in Albino Swiss mouse at 20 mg/kg, ip pretreated for 30 mins by forced swimming test; type: functional
Mus musculus [18] = assay: Reduction of immobility time in Albino Swiss mouse at 10 mg/kg, ip pretreated for 30 mins by forced swimming test; type: functional
Mus musculus [19] = assay: Reduction of immobility time in Albino Swiss mouse at 1 mg/kg, ip pretreated for 30 mins by forced swimming test; type: functional; parameters: scale not given: the % may be the effect or the level left; details: route intraperitoneal
Mus musculus [20] = assay: Reduction of immobility time in Albino Swiss mouse at 2 mg/kg, ip pretreated for 30 mins by forced swimming test; type: functional; parameters: scale not given: the % may be the effect or the level left; details: route intraperitoneal
Mus musculus [21] = assay: Effect on spontaneous locomotor activity in Albino Swiss mouse assessed as number of light-beam crossings in actiometers pretreated for 30 mins at 10 mg/kg, ip measured during 6 mins post drug dose; type: functional; details: route intraperitoneal
Mus musculus [22] = assay: Reduction of spontaneous locomotor activity in Albino Swiss mouse at 20 mg/kg, ip during 6 mins; type: functional, organism-based; parameters: dose 20 mg/kg
Mus musculus [23] = assay: Reduction of spontaneous locomotor activity in Albino Swiss mouse at 20 mg/kg, ip during 30 mins; type: functional, organism-based; parameters: dose 20 mg/kg
Mus musculus [24] = assay: Effect on spontaneous locomotor activity in Albino Swiss mouse assessed as number of light-beam crossings in actiometers pretreated for 30 mins at 10 mg/kg, ip measured during 30 mins post drug dose; type: functional; details: route intraperitoneal

Ki [1]	Ki [2]	SMILES	deltaT (Mus musculus [3])	deltaT (Mus musculus [4])	deltaT (Mus musculus [5])	deltaT (Mus musculus [6])	deltaT (Mus musculus [7])	deltaT (Mus musculus [8])	deltaT (Mus musculus [9])	deltaT (Mus musculus [10])	deltaT (Mus musculus [11])	deltaT (Mus musculus [12])	deltaT (Mus musculus [13])	deltaT (Mus musculus [14])	deltaT (Mus musculus [15])	deltaT (Mus musculus [16])	other results
41.1 nM	251 nM	COc1ccc2[nH]cc(C3CCN(CCCCn4c(=O)c(-c5ccc(Cl)cc5)c5ccccn5c4=O)CC3)c2c1	–	–	–	–	–	–	–	–	–	–	–	–	–	–	–
5.8 nM	0.3 nM	Cc1ccc(-c2c(=O)n(CCCCN3CCC(c4c[nH]c5ccccc45)CC3)c(=O)n3ccccc23)cc1	-0.4 °C	0.2 °C	-0.1 °C	-0.1 °C	-0.5 °C	-0.3 °C	-0.1 °C	-0.1 °C	-1 °C	-0.8 °C	-0.7 °C	-0.8 °C	-0.3 °C	-0.2 °C	Activity (Mus musculus [17]): inactive; Activity (Mus musculus [18]): inactive
52.3 nM	129 nM	COc1ccc2[nH]cc(C3CCN(CCCCn4c(=O)c(-c5ccccc5)c5ccccn5c4=O)CC3)c2c1	–	–	–	–	–	–	–	–	–	–	–	–	–	–	–
–	–	Br.CCCN(CCC)C1CCc2cccc(O)c2C1 (configuration not stated)	–	–	–	–	–	–	–	–	–	–	–	–	–	–	Activity (Mus musculus [19]): 45%; Activity (Mus musculus [20]): 57%
34.6 nM	54.6 nM	COc1ccc2[nH]cc(C3CCN(CCCCn4c(=O)c(-c5ccc(F)cc5)c5ccccn5c4=O)CC3)c2c1	–	–	–	–	–	–	–	–	–	–	–	–	–	–	–
4.8 nM	0.7 nM	O=c1c(-c2ccccc2F)c2ccccn2c(=O)n1CCCCN1CCC(c2c[nH]c3ccccc23)CC1	-0.5 °C	-0.3 °C	-0.1 °C	-0.1 °C	-0.8 °C	-0.2 °C	-0.3 °C	-0.1 °C	-1.1 °C	-0.8 °C	-0.7 °C	-0.7 °C	-0.3 °C	-0.1 °C	Activity (Mus musculus [18]; route intraperitoneal): 40%; Activity (Mus musculus [21]): 179; Activity (Mus musculus [22]): Active; Activity (Mus musculus [23]): Active; Activity (Mus musculus [24]): 399
